Data as given in article PMC11395612, “DPP-IV Inhibitory Peptide against In Vitro Gastrointestinal Digestion Derived from Goat’s Milk Protein and Its Activity Enhancement via Amino Acid Substitution” (Foods, 2024).
“Also recorded” adds a separate entry of the source. Where two headings read alike, the source gives them in different places.

Columns and labels:
DPP-IV [1] = molecular target: T1, DPP-IV (Homo sapiens, UniProt P27487); assay type: cell-based
T1 construct: host or cells: Caco-2 cells
T1 sequence (P27487 whole entry): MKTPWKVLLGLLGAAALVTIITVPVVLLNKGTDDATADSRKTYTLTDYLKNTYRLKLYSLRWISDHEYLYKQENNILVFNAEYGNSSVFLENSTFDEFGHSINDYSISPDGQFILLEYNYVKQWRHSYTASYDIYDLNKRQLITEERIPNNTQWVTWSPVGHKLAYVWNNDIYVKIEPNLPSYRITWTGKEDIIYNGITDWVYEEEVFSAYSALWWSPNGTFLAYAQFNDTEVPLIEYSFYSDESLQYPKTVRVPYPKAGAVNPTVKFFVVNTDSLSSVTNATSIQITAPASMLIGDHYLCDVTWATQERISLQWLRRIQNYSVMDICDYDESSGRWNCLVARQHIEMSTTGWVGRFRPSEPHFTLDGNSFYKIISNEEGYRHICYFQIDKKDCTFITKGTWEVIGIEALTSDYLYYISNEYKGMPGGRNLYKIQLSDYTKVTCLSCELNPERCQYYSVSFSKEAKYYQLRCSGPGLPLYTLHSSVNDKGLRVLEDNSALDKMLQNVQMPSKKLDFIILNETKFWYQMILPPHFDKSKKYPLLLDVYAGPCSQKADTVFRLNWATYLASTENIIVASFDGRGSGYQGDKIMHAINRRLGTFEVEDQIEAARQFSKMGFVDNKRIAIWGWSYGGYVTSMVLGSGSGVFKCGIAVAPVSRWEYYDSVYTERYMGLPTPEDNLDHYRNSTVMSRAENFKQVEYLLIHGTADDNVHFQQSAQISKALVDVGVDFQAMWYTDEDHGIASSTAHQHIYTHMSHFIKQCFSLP

Caco-2 cells = details: 4 h
DPP-IV [2] = details: MBPDB database assignment, cited from earlier work
Source text: Among them, the DPP-IV inhibitory peptide fragment derived from milk serum albumin may be rapidly degraded in vivo due to low structural stability, leading to loss of activity.

[3] = In vitro simulated gastrointestinal digestion of goat milk; assay type: in vitro ADME; details: in vitro gastric (pepsin, pH 2.0, 60 min) then intestinal digestion (pH 7.0), 30 min, LC-MS/MS
Method: Goat milk was subjected to simulated gastrointestinal digestion according to the in vitro digestion protocol described by Xue et al.. Artificial gastric fluid from goat milk was mixed in a 1:1 ratio, followed by the addition of 120 μL CaCl2(H2O)2. The pH of the resulting solution was adjusted to 2.0 using HCl. The solution was then divided into centrifuge tubes, with each tube containing 20 mL of the solution. The tubes were placed in a water bath (FYDKH3, Shanghai Hengyi Scientific Instrument Co., Shanghai, China) and subjected to shock for five min for pre-heating. Subsequently, pepsin was added and dissolved in simulated gastric fluid (SGF). After preheating, 1 mL enzyme solution was added to each tube to initiate the in vitro digestion process. Digestion time intervals were established at 0, 10, 30, 60, 90, and 120 min. Additionally, the pH of the digestion solution was adjusted to 8.0, using NaOH solution to deactivate the enzyme following digestion. After gastric digestion for 60 min followed by enzyme inactivation, an artificial intestinal solution was added at a ratio of 1:1. The subsequent experimental procedures were identical to those previously described. The pH of the solution was adjusted to 7.0. Digestion time intervals were set at 0, 0.5, 5, 10, 30, and 60 min. […]
LC-MS/MS was determined as described by Sun et al.. […]

DPP-IV [4] = details: ref [32], cited from earlier work
Source text: In the process of in vitro digestion, potential active peptide fragments harboring in food proteins may be degraded by digestive enzymes, but the peptide fragment selected in this study still has DPP-IV inhibitory activity after digestion, which is a digestion-resistant peptide fragment with a molecular weight of about 1kDa. Some reported that DPP-IV inhibitory peptides tend to be active peptides with 2–8 amino acid residues and a molecular weight of less than 1 kDa. The DPP-IV inhibition and metabolic stability of casein-derived peptide Val-Pro-Tyr-Pro-Gln (VPYPQ) and its fragments, an ...

[5] = ref [23] in Table 1 for VGINYWLAHK and ILDKVGINYWLAHK

Substance	DPP-IV inhibition rate (DPP-IV [1]) [%]	DPP-IV inhibitory effect, in words (DPP-IV [1])	cellular activity (cell viability) (Caco-2 cells; 0.5 mg/mL) [%]	cellular activity (cell viability) (Caco-2 cells; 1 mg/mL) [%]	DPP-IV inhibitory activity, in words (DPP-IV [2]; [5])	also measured
H-IIDKVGINY-OH [II]	79.20 ± 2.20	significant enhancement of DPP-IV inhibitory activity; also recorded: strongest; also recorded: increased the hydrophobic force and inhibitory activity	90.34 ± 2.08	85.51 ± 3.52		
H-ILDKVGINY-OH [IL]	73.44 ± 2.23		91.91 ± 5.763	86 ± 3.911		DPP-IV inhibitory activity, in words (DPP-IV [2]; ref [23] in Table 1 for […] and […]): displayed DPP-IV inhibitory activity; resistance to digestion / activity after digestion, in words [3]: high in content and resistance to digestion; resistance to digestion / activity after digestion, in words ([3]; listed as ILDKVGINY): retaining its activity following digestion
H-IPDKVGINY-OH [IP]	60.37 ± 3.04	weakest; also recorded: lower inhibition rate	91.88 ± 5.385	84.46 ± 2.928		
ILDKVGINYWLAHK					displayed DPP-IV inhibitory activity	
VGINYWLAHK					displayed DPP-IV inhibitory activity	
Val-Pro-Tyr-Pro-Gln [VPYPQ, casein-derived peptide]						DPP-IV inhibitory activity, in words (DPP-IV [4]; among VPYPQ and its fragments): strongest DPP-IV inhibitory peptide; IC50 (DPP-IV [4]; casein-derived peptide, read-out: IC50 of DPP-IV inhibition): 41.5 µM
